Legend:
Assay in all cases: Post-emergence herbicidal activity, greenhouse
Type in all cases: in vivo
[1] = test system: Soybean; conditions: Table II
From the text: (§1) A good grade of top soil is placed in aluminum pans having holes in the bottom and compacted to a depth of 0.95 to 1.27 cm. from the top of the pan. A predetermined number of seeds of each of several dicotyledonous and monocotyledonous annual plant species and/or vegetative propagules for the perennial plant species are placed on the soil and pressed into the soil surface. The seeds and/or vegetative propagules are covered with soil and leveled. The pans are then placed on a sand bench in the greenhouse and watered from below as needed. After the plants reach the desired age (two to three weeks), each pan except for the control pans is removed individually to a spraying chamber and sprayed by means of an atomizer operating at a positive air pressure of approximately 1.46 kg/cm^2 absolute. The atomizer contains 6 ml. of a solution or suspension of the chemical. In that 6 ml., is an amount of a cyclohexanone emulsifying agent mixture to give a spray solution or suspension which contains about 0.4% by weight of the emulsifier. The spray solution or suspension contains a sufficient amount of the candidate chemical in order to give application rates corresponding to those set forth in the tables. The spray solution is prepared by taking an aliquot of a 1.0% by weight stock solution or suspension of the candidate chemical in an organic solvent such as acetone or tetrahydrofuran or in water. The emulsifying agent employed is a mixture comprising 35 weight percent butylamine dodecylbenzene sulfonate and 65 weight percent of a tall oil ethylene oxide condensate having about 11 moles of ethylene oxide per mole of tall oil. The pans are returned to the greenhouse and watered as before and the injury to the plants as compared to the control is observed at approximately two and four weeks as indicated in the tables under WAT and the results recorded. In some instances, the two-week observations are omitted.
(§2) The post-emergence herbicidal activity index used in Table I is as follows:
(§3) The plant species utilized in these tests are identified by letter in accordance with the following legend: […]

[2] = test system: Wild Buckwheat; conditions: Table II
From the text: as §1, §2, §3

[3] = test system: Crabgrass; conditions: Table II
From the text: as §1, §2, §3

[4] = test system: Yellow Nutsedge; conditions: Table I, 4 WAT
From the text: as §1, §2, §3

[5] = test system: Canada Thistle; conditions: Table I, 4 WAT
From the text: as §1, §2, §3

[6] = test system: Downy Brome
From the text: as §1, §2, §3

[7] = test system: Morningglory
From the text: as §1, §2, §3

[8] = test system: Wheat; conditions: Table II
From the text: as §1, §2, §3

[9] = test system: Sugar Beet; conditions: Table II
From the text: as §1, §2, §3

[10] = test system: Barnyardgrass
From the text: as §1, §2, §3

[11] = test system: Rice; conditions: Table II
From the text: as §1, §2, §3

[12] = test system: Panicum Spp; conditions: Table II
From the text: as §1, §2, §3

SMILES: O=C(CN(CP(=O)(Oc1ccccc1)Oc1ccccc1)SSCCc1ccccc1)OCc1ccccc1 [IV, Glycine, N-[(diphenoxyphosphinyl)methyl]-N-[(2-phenylethyl)dithio]-, phenylmethyl ester]
- post-emergence herbicidal activity index ([1]; 0.28 kg/h, 2 WAT): 0 (0- 24% control)
- post-emergence herbicidal activity index ([1]; 1.12 kg/h, 4 WAT): 0 (0- 24% control)
- post-emergence herbicidal activity index ([1]; 5.6 kg/h, 4 WAT): 2 (50-74% control)
- post-emergence herbicidal activity index ([2]; 0.28 kg/h, 2 WAT): 0 (0- 24% control)
- post-emergence herbicidal activity index ([2]; 1.12 kg/h, 4 WAT): 0 (0- 24% control)
- post-emergence herbicidal activity index ([2]; 5.6 kg/h, 4 WAT): 2 (50-74% control)
- post-emergence herbicidal activity index ([3]; 0.28 kg/h, 2 WAT): 0 (0- 24% control)
- post-emergence herbicidal activity index ([3]; 1.12 kg/h, 4 WAT): 2 (50-74% control)
- post-emergence herbicidal activity index ([3]; 5.6 kg/h, 4 WAT): 4 (100% control)
- post-emergence herbicidal activity index ([4]; 5.6 kg/h): 0 (0- 24% control)
- post-emergence herbicidal activity index ([4]; 11.2 kg/h): 1 (25-49% control)
- post-emergence herbicidal activity index ([5]; 5.6 kg/h): 0 (0- 24% control)
- post-emergence herbicidal activity index ([5]; 11.2 kg/h): 1 (25-49% control)
- post-emergence herbicidal activity index ([6]; Table I, 5.6 kg/h, 4 WAT): 0 (0- 24% control)
- post-emergence herbicidal activity index ([6]; Table I, 11.2 kg/h, 4 WAT): 1 (25-49% control)
- post-emergence herbicidal activity index ([6]; Table II, 0.28 kg/h, 2 WAT): 0 (0- 24% control)
- post-emergence herbicidal activity index ([6]; Table II, 1.12 kg/h, 4 WAT): 0 (0- 24% control)
- post-emergence herbicidal activity index ([6]; Table II, 5.6 kg/h, 4 WAT): 3 (75-99% control)
- post-emergence herbicidal activity index ([7]; Table I, 5.6 kg/h, 4 WAT): 2 (50-74% control)
- post-emergence herbicidal activity index ([7]; Table I, 11.2 kg/h, 4 WAT): 2 (50-74% control)
- post-emergence herbicidal activity index ([7]; Table II, 0.28 kg/h, 2 WAT): 0 (0- 24% control)
- post-emergence herbicidal activity index ([7]; Table II, 1.12 kg/h, 4 WAT): 0 (0- 24% control)
- post-emergence herbicidal activity index ([7]; Table II, 5.6 kg/h, 4 WAT): 2 (50-74% control)
- post-emergence herbicidal activity index ([8]; 0.28 kg/h, 2 WAT): 0 (0- 24% control)
- post-emergence herbicidal activity index ([8]; 1.12 kg/h, 4 WAT): 1 (25-49% control)
- post-emergence herbicidal activity index ([8]; 5.6 kg/h, 4 WAT): 3 (75-99% control)
- post-emergence herbicidal activity index ([9]; 0.28 kg/h, 2 WAT): 0 (0- 24% control)
- post-emergence herbicidal activity index ([9]; 1.12 kg/h, 4 WAT): 3 (75-99% control)
- post-emergence herbicidal activity index ([9]; 5.6 kg/h, 4 WAT): 4 (100% control)
- post-emergence herbicidal activity index ([10]; Table I, 5.6 kg/h, 4 WAT): 2 (50-74% control)
- post-emergence herbicidal activity index ([10]; Table I, 11.2 kg/h, 4 WAT): 2 (50-74% control)
- post-emergence herbicidal activity index ([10]; Table II, 0.28 kg/h, 2 WAT): 0 (0- 24% control)
- post-emergence herbicidal activity index ([10]; Table II, 1.12 kg/h, 4 WAT): 0 (0- 24% control)
- post-emergence herbicidal activity index ([10]; Table II, 5.6 kg/h, 4 WAT): 4 (100% control)
- post-emergence herbicidal activity index ([11]; 0.28 kg/h, 2 WAT): 0 (0- 24% control)
- post-emergence herbicidal activity index ([11]; 1.12 kg/h, 4 WAT): 0 (0- 24% control)
- post-emergence herbicidal activity index ([11]; 5.6 kg/h, 4 WAT): 1 (25-49% control)
- post-emergence herbicidal activity index ([12]; 0.28 kg/h, 2 WAT): 0 (0- 24% control)
- post-emergence herbicidal activity index ([12]; 1.12 kg/h, 4 WAT): 0 (0- 24% control)
- post-emergence herbicidal activity index ([12]; 5.6 kg/h, 4 WAT): 3 (75-99% control)

Source: US4401604A, “Process for preparing thiosulfenamide derivatives of N-phosphonomethylglycine triesters” (Monsanto Company, priority 1981, dated 1983)
